Values joined by “and” are separate entries in the source; they are usually repeats but may differ in a detail not shown here. Equal values may be shown once. Read-outs that look alike come from different tables or passages of the source.

Data set [1] relates to S. cerevisiae. Put plainly: Yeast replicative lifespan. The data set is classed as cell-based. The settings on record: 10 μM; for Effect on lifespan / Effect on maximum lifespan / Increase of average lifespan: wild type; for % change in yeast replicative lifespan relative to untreated organisms: 2% glucose YPD, untreated = 100%. As for the experimental part: Average lifespan was determined for wild type untreated (□), quercetin (◯) and piceatannol (●).

The target in data set [2] is T1, recombinant human SIRT1 (Homo sapiens, UniProt Q96EB6).
T1 sequence (Q96EB6 1-747): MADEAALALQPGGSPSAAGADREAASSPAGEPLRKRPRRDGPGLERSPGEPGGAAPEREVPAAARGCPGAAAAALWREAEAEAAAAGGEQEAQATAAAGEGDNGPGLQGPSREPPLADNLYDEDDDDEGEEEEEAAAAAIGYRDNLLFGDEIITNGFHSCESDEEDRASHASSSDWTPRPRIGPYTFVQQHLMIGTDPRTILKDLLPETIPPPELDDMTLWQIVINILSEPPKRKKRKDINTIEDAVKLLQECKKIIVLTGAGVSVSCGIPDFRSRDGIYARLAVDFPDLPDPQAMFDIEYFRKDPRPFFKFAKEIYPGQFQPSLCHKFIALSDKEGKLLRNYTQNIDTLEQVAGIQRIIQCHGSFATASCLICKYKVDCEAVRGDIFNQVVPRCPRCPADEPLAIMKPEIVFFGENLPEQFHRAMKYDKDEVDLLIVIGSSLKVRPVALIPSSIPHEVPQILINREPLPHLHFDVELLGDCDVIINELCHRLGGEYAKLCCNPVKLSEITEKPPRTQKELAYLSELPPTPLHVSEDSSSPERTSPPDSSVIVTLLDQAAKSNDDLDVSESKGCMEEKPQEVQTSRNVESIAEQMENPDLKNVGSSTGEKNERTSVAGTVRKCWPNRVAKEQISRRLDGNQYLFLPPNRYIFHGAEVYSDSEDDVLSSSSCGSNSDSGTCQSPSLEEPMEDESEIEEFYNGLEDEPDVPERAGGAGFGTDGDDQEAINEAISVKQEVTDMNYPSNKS
Put plainly: SIRT1 fluorescent deacetylation assay (p53-382 acetylated peptide substrate). The data set is classed as biochemical.

The subject of data set [3] is HeLa S3 cells. Kind of data set: Cellular deacetylase assay with Fluor de Lys substrate. It counts as cell-based, human. The settings on record: 1 μM TSA. As to the method:
FdL (200 μM) is added to growth media and cells are incubated for 1-3 hours to allow FdL to enter the cells and the lysine-deacetylated product (deAc-FdL) to accumulate intracellularly. Cells are lysed with detergent in the presence of 1 μM TSA and 1 mM nicotinamide. Addition of the non-cell-permeable Developer (BIOMOL) releases a fluorophor, specifically from deAc-FdL. […] Cells were grown adherently in DMEM/10% FCS and treated for 1 hour with 200 μM FdL, 1 μM TSA and either vehicle (0.5% final DMSO, Control) or 500 μM of the indicated compound. Intracellular accumulation of deAc-FdL was then determined as described briefly in FIG. 4a. […] Lysates were prepared and analyzed by Western blot as in FIG. 4c. […] Lysates were prepared and analyzed as above.
FIG. 6a through 6c show intracellular deacetylation activity measured with a cell-permeable, fluorogenic HDAC and sirtuin substrate. […] Intracellular and medium levels of deacetylated substrate (deAc-FdL) were determined according to the manufacturer's instructions (HDAC assay kit, BIOMOL). […]
Themed compound libraries (BIOMOL) were used for primary and secondary screening. […] HeLa cells were grown and the cellular deacetylation assays were performed and read, as above, but in full-volume 96-well microplates (Corning Costar 3595). […]

In data set [4] the test system is C. elegans (strain N2). Kind of data set: C. elegans lifespan. It counts as in vivo. The settings on record: N2 worms, untreated = 100%. As for the experimental part:
Thus, the presence of resveratrol in the growth media of C. elegans extends their lifespan.
The effect of some of these compounds on lifespan was determined in yeast, C. elegans and D. melanogaster, as described above.

Data set [5] is described as follows: Stability in solution (decay of SIRT1 fold-stimulation of aged stock). It counts as physicochemical. The note with it: ethanol stock solution; ethanol stock 2.5 mM, room temperature, glass vials, nitrogen; assayed at 50 μM; read-out: Stability in Solution t1/2 (converted). The source says:
The fold-stimulation (ratio to control) obtained with a compound diluted from an aged stock solution was compared to an identical dilution from a stock solution freshly prepared from the solid compound. “t1/2” is defined as the time required for the SIRT1 fold-stimulation of the compound from the aged solution to decay to one-half of that obtained from a freshly prepared solution. […] Stocks were aged by storage at room […] temperature, in glass vials, under a nitrogen atmosphere.

[6] abbreviates: Supplementary Table 1, stilbenes and chalcones, 100 μM, 25 μM NAD+, 25 μM p53-382 acetylated peptide.
Where [7] appears, read: Table 1, 100 μM compound, 25 μM NAD+, 25 μM p53-382 acetylated peptide.
The mark [8] stands for this setting: Supplementary Table 2, flavones part I, 100 μM, 25 μM NAD+, 25 μM p53-382 acetylated peptide.
[9] abbreviates: Table 9, resveratrol analogs, 100 μM, 25 μM NAD+, 25 μM p53-382 acetylated peptide.
The mark [10] stands for this setting: Table 12, resveratrol analogs, 100 μM, 25 μM NAD+, 25 μM p53-382 acetylated peptide.
The mark [11] stands for this setting: Supplementary Table 3, flavones part II, 100 μM, 25 μM NAD+, 25 μM p53-382 acetylated peptide.

With `Oc1cc(O)cc(/C=C/c2ccc(O)c(O)c2)c1` [Piceatannol, 3,5,3′,4′-Tetrahydroxy-trans-stilbene], in data set [1], the Effect on lifespan entry was “no significant effect”. Besides, the “Ratio to Control Rate Mean ± SE” value in data set [2] (setting [6]) and in data set [2] (setting [7]) was 7.90 ± 0.50 in each case. Further, the “Stimulation of SIRT1 activity” value in data set [2] (initial library screen) was “eight-fold”.

Regarding `O=c1c(O)c(-c2ccc(O)c(O)c2)oc2cc(O)ccc12` [Fisetin, 3,7,3′,4′-Tetrahydroxyflavone], in data set [1], the “Effect on maximum lifespan” value is recorded as “significantly increased” and the “Increase of average lifespan” value is 55%. Moreover, in data set [2] (setting [8]), the “Ratio to Control Rate Mean ± SE” value turned out to be 6.58. In addition, in data set [2] (setting [7]), the “Ratio to Control Rate Mean ± SE” value is given as 6.58 ± 0.69.

With `O=c1c(O)c(-c2ccc(O)c(O)c2)oc2cc(O)cc(O)c12` [Quercetin, 3,5,7,3′,4′-Pentahydroxyflavone], the Effect on lifespan result in data set [1] is on record as “no significant effect”. The “Ratio to Control Rate Mean ± SE” value in data set [2] (setting [8]) and in data set [2] (setting [7]) was 4.59 ± 0.47 each time.

In the case of `Oc1cc(O)cc(/C=C/c2ccccc2)c1` [Pinosylvin, 3,5-Dihydroxy-trans-stilbene], in data set [1], the “% change in yeast replicative lifespan relative to untreated organisms” value is 114%. The “Ratio to Control Rate Mean ± SE” value in data set [2] (setting [9]) was 9.95 ± 0.45.

Turning to `CC(/C=C/C(=O)NO)=C\[C@@H](C)C(=O)c1ccc(N(C)C)cc1` [trichostatin A, reference compound], the “Signal insensitive to trichostatin A” value in data set [3] (HeLa cells growing adherently) was 5-10%.

Take `COc1ccc(/C=C/c2cc(O)cc(O)c2)cc1` [BML-233, 3,5-Dihydroxy-4′-methoxy-trans-stilbene]: the “Ratio to Control Rate Mean ± SE” value in data set [2] is reported as 5.48 ± 0.33. Moreover, the figures for the “% change in C. elegans lifespan relative to untreated organisms” value in data set [4] ((10) printed in the cell) and in data set [4] ((500) printed in the cell) were 70% (10) and 50% (500), respectively.

As to `Oc1cc(O)cc(/C=C/c2ccc(F)cc2)c1` [BML-212, 3,5-Dihydroxy-4′-fluoro-trans-stilbene], the half-life at 50 µM in data set [5] was 2.75 days. Further, in data set [1], the “% change in yeast replicative lifespan relative to untreated organisms” value is 98%. Further, the “Ratio to Control Rate Mean ± SE” value in data set [2] (setting [9]) is recorded as 8.20 ± 0.69.

With `O=C(/C=C/c1ccc(O)c(O)c1)c1ccc(O)cc1O` [Butein, 3,4,2′,4′-Tetrahydroxychalcone], the “TSA-insensitive cellular deacetylation signal” value in data set [3] (500 μM compound, 200 μM FdL, 1 hour) is “no effect”. The “Effect on maximum lifespan” value in data set [1] is “significantly increased”. Besides, the “Increase of average lifespan” value in data set [1] is reported as 31%. The “Ratio to Control Rate Mean ± SE” value in data set [2] (setting [6]) and in data set [2] (setting [7]) was 8.53 ± 0.89 throughout.

Consider `Oc1cc(O)cc(/C=C/c2ccc(Cl)cc2)c1` [BML-217, 3,5-Dihydroxy-4′-chloro-trans-stilbene], for which the “% change in yeast replicative lifespan relative to untreated organisms” value in data set [1] is on record as 90%. In addition, the “Ratio to Control Rate Mean ± SE” value in data set [2] (setting [9]) is reported as 10.6 ± 0.4.

As for `CC(=O)Oc1ccc(/C=C/c2cc(O)cc(O)c2)cc1` [BML-221, 3,5-Dihydroxy-4′-acetoxy-trans-stilbene], the half-life in data set [5] was 21 days. In addition, the “% change in yeast replicative lifespan relative to untreated organisms” value in data set [1] worked out at 165%. The “Ratio to Control Rate Mean ± SE” value in data set [2] (Table 11, resveratrol analogs, 100 μM, 25 μM NAD+, 25 μM p53-382 acetylated peptide) is recorded as 3.05 ± 0.54. Moreover, in data set [4] (100/500 μM, E. coli as food), the “% change in C. elegans lifespan relative to untreated organisms” value is recorded as >100% (ongoing).

With `Oc1cc(O)cc(/C=C/C2CCCCC2)c1` [BML-224, (E)-1-(3,5-Dihydroxyphenyl)-2-(cyclohexyl) ethene], in data set [2] (setting [10]), the “Ratio to Control Rate Mean ± SE” value is on record as 1.297 ± 0.042.

For `O=c1c(-c2ccc(O)cc2)coc2cc(O)ccc12` [Daidzein, 7,4′-Dihydroxyisoflavone], in data set [2] (Supplementary Table 4, isoflavones, flavanones, anthocyanidins, 100 μM, 25 μM NAD+, 25 μM p53-382 acetylated peptide), the “Ratio to Control Rate Mean ± SE” value worked out at 2.28 ± 0.74.

Regarding `Oc1ccc(-c2[o+]c3cc(O)cc(O)c3cc2O)cc1.[Cl-]` [Pelargonidin chloride, 3,5,7.4′-Tetrahydroxyflavylium chloride], the “Ratio to Control Rate Mean ± SE” value in data set [2] turned out to be 1.586.

As to `Oc1ccc(/C=C/c2ccccc2)cc1O` [3,4-Dihydroxy-trans-stilbene], the “Ratio to Control Rate Mean ± SE” value in data set [2] (setting [10]) is 1.64 ± 0.10.

In the case of `O=c1c(O)c(-c2cccc(O)c2O)oc2ccc(O)cc12` [3,6,2′,3′-Tetrahydroxyflavone], in data set [2] (setting [11]), the “Ratio to Control Rate Mean ± SE” value is given as 1.74 ± 0.27.

As to `O=c1cc(-c2ccc(O)cc2)oc2cc(O)cc(O)c12` [Apigenin, 5,7,4′-Trihydroxyflavone], in data set [2] (setting [8]), the “Ratio to Control Rate Mean ± SE” value is listed as 2.77 ± 0.40.

In the case of `NC(=O)c1cccnc1` [Nicotinamide, reference compound], the “SIRT1 Vmax decrease” value in data set [2] (50 μM nicotinamide, absence of resveratrol, NAD+ or p53-382 peptide varied) was 30% and 36%. In addition, the “Ratio to Control Rate Mean ± SE” value in data set [2] (Supplementary Table 7, miscellaneous compounds, 100 μM, 25 μM NAD+, 25 μM p53-382 acetylated peptide) was determined as 0.428.

As for `O=c1cc(-c2ccc(O)cc2)oc2cccc(O)c12` [5,4′-Dihydroxyflavone], the “Ratio to Control Rate Mean ± SE” value in data set [2] (setting [11]) stood at 1.56 ± 0.15.

`COc1ccc(/C=C/c2ccccc2)cc1` [4-Methoxy-trans-stilbene]: the “Ratio to Control Rate Mean ± SE” value in data set [2] (Table 13, resveratrol analogs, 100 μM, 25 μM NAD+, 25 μM p53-382 acetylated peptide) is 0.840 ± 0.089.

Source of the values: patent publication US20060084135A1, “Compositions for manipulating the lifespan and stress response of cells and organisms” (priority 2003, published 2006).
